Experimental data as given in patent US20110152093A1, “Herbicidal compositions comprising flufenacet” (Bayer CropScience AG, priority 2009, published 2011).

Key:
Format in all cases: in vivo
AVEFA (Avena fatua) = test: Pre-sowing application action against weeds (7 days prior to sowing), test method 5; settings: application 7 days prior to sowing; g of AS/ha: (A) 90, (B) 1200, (C) 140, (A)+(B)+(C) 90 + 1200 + 140
Protocol: (§1) In the standard design of the test, seeds of various broad-leaved weed and weed grass biotypes (origins) were sown in a 8-13 cm diameter pot filled with natural soil of a standard field soil (loamy silt; non-sterile) and covered with a covering soil layer of about 1 cm. The pots were then cultivated in a greenhouse (12-16 h of light, temperature day 20-22° C., night 15-18° C.) until the time of application. The pots were treated on a laboratory track sprayer with spray liquors comprising the compositions according to the invention, mixtures of the prior art or components used individually. Application of the active compounds or active compound combinations formulated as WG, WP, EC or otherwise was carried out at the appropriate growth stages of the plants. The application rate for the spray application was 100-600 l of water/ha. After the treatment, the plants were returned to the greenhouses.
(§2) About 3 weeks after the application, the soil action or/and foliar action was assessed visually according to a scale of 0-100% in comparison to an untreated comparative group: 0%=no noticeable effect compared to the untreated comparative group; 100%=full effect compared to the untreated comparative group.
(§3) (notes: the term “seeds” also includes vegetative propagation forms such as, for example, rhizome pieces; abbreviations used: h light=hours of illumination, g of AS/ha=gram of active substance per hectare, l/ha=liter per hectare, S=sensitive, R=resistant) • 1. Pre-emergence action against weeds: seeds of various broad-leaved weed and weed grass biotypes (origins) were sown in a 8-13 cm diameter pot filled with natural soil of a standard field soil (loamy silt; non-sterile) and covered with a covering soil layer of about 1 cm. The pots were then cultivated in a greenhouse (12-16 h of light, temperature day 20-22° C., night 15-18° C.) until the time of application. The pots were treated at the BBCH stage 00-10 of the seeds/plants on a laboratory track sprayer with spray liquors comprising the compositions according to the invention, mixtures or components used individually, as WG, WP, EC or other formulations. The application rate for the spray application was 100-600 l of water/ha. After the treatment, the plants were returned to the greenhouses and, when required, treated with fertilizer and watered. • 2. Post-emergence action against weeds: seeds of various broad-leaved weed and weed grass biotypes (origins) were sown in a 8-13 cm diameter pot filled with natural soil of a standard field soil (loamy silt; non-sterile) and covered with a covering soil layer of about 1 cm. The pots were then cultivated in a greenhouse (12-16 h of light, temperature day 20-22° C., night 15-18° C.) until the time of application. […]

LOLPE (Lolium perenne) [1] = test: as above; settings: application 7 days prior to sowing; g of AS/ha: (A) 90, (B) 1200, (C) 140, (A)+(B)+(C) 90 + 1200 + 140
Protocol: as §1, §2, §3

[2] = tested on: ALOMY resistant (Alopecurus myosuroides); test: PE action on resistant weed biotypes, test method 8; settings: PE application; g of AS/ha: (A) 90, (B) 1200, (C) 140, (A)+(B)+(C) 90 + 1200 + 140, iodosulfuron 10
Protocol: as §1, §2
(§4) (notes: the term “seeds” also includes vegetative propagation forms such as, for example, rhizome pieces; abbreviations used: h light=hours of illumination, g of AS/ha=gram of active substance per hectare, l/ha=liter per hectare, S=sensitive, R=resistant) • 1. Pre-emergence action against weeds: seeds of various broad-leaved weed and weed grass biotypes (origins) were sown in a 8-13 cm diameter pot filled with natural soil of a standard field soil (loamy silt; non-sterile) and covered with a covering soil layer of about 1 cm. The pots were then cultivated in a greenhouse (12-16 h of light, temperature day 20-22° C., night 15-18° C.) until the time of application. The pots were treated at the BBCH stage 00-10 of the seeds/plants on a laboratory track sprayer with spray liquors comprising the compositions according to the invention, mixtures or components used individually, as WG, WP, EC or other formulations. The application rate for the spray application was 100-600 l of water/ha. After the treatment, the plants were returned to the greenhouses and, when required, treated with fertilizer and watered. • 2. Post-emergence action against weeds: seeds of various broad-leaved weed and weed grass biotypes (origins) were sown in a 8-13 cm diameter pot filled with natural soil of a standard field soil (loamy silt; non-sterile) and covered with a covering soil layer of about 1 cm. The pots were then cultivated in a greenhouse (12-16 h of light, temperature day 20-22° C., night 15-18° C.) until the time of application. The pots were treated at various BBCH stages between 11-25 of the seeds/plants, i.e. generally between two to three weeks after the start of the cultivation, on a laboratory track sprayer with spray liquors comprising the compositions according to the invention, mixtures or components used individually, as WG, WP, EC or other formulations. The application rate for the spray application was 100-600 l of water/ha. After the treatment, the plants were returned to the greenhouses and, when required, treated with fertilizer and watered. • 3. Selective pre-emergence action: seeds of various crop species (origins) were sown in a 8-13 cm diameter pot filled with natural soil of a standard field soil (loamy silt; non-sterile) and covered with a covering soil layer of about 1 cm. The pots were then cultivated in a greenhouse (12-16 h of light, temperature day 20-22° C., night 15-18° C.) until the time of application. The pots were treated at the BBCH stage 00-10 of the seeds/plants on a laboratory track sprayer with spray liquors comprising the compositions according to the invention, mixtures or components used individually, as WG, WP, EC or other formulations. The application rate for the spray application was 100-600 l of water/ha. […]

[3] = tested on: ALOMY sensitive (Alopecurus myosuroides); test: as above; settings: PE application; g of AS/ha: (A) 90, (B) 1200, (C) 140, (A)+(B)+(C) 90 + 1200 + 140, iodosulfuron 10
Protocol: as §1, §2, §4

[4] = tested on: LOLSS resistant (Lolium species); test: as above; settings: PE application; g of AS/ha: (A) 90, (B) 1200, (C) 140, (A)+(B)+(C) 90 + 1200 + 140, iodosulfuron 10
Protocol: as §1, §2, §4

[5] = tested on: LOLSS sensitive (Lolium species); test: as above; settings: PE application; g of AS/ha: (A) 90, (B) 1200, (C) 140, (A)+(B)+(C) 90 + 1200 + 140, iodosulfuron 10
Protocol: as §1, §2, §4

[6] = tested on: MATCH (Matricaria chamomilla); test: PE action under various irrigation conditions, test method 6; settings: PE application
Protocol: as §1, §2, §4

LOLPE (Lolium perenne) [7] = test: as above; settings: PE application, g of AS/ha: (A) 90, (B) 1200, (C) 140, (A)+(B)+(C) 90 + 1200 + 140
Protocol: as §1, §2, §4

[8] = tested on: HORVS (Hordeum vulgare, summer barley); test: PE crop compatibility at different soil pH values, test method 10; settings: PE application, g of AS/ha: (A) 90, (B) 1200, (C) 140, (A)+(B)+(C) 90 + 1200 + 140
Protocol: as §1, §2

[9] = tested on: HORVS (Hordeum vulgare, summer barley); test: Pre-sowing application (7 days prior to sowing), crop compatibility; settings: g of AS/ha: (A) 90, (B) 1200, (C) 140, (A)+(B)+(C) 90 + 1200 + 140
Protocol: as §1
About 3 weeks after the application, the soil action or/and foliar action was assessed visually according to a scale of 0-100% in comparison to an untreated comparative group: 0%=no noticeable effect compared to the untreated comparative group; 100%=full effect compared to the untreated comparative group. […]

STEME (Stellaria media) = test: Action under various soil conditions (soil types), test method 7; settings: g of AS/ha: (A) 90, (B) 1200, (C) 140, (A)+(B)+(C) 90 + 1200 + 140
Protocol: as §1, §2, §4

## CCC(CC)Nc1c([N+](=O)[O-])cc(C)c(C)c1[N+](=O)[O-] [(B) pendimethalin, N-(1-ethylpropyl)-3,4-dimethyl-2,6-dinitrobenzenamine]
AVEFA (Avena fatua)
  activity AVEFA: 70%
LOLPE (Lolium perenne) [1]
  activity LOLPE: 0%
[2]
  activity ALOMY resistant: 40%
[3]
  activity ALOMY sensitive: 30%
[4]
  activity LOLSS resistant: 0%
[5]
  activity LOLSS sensitive: 78%
[6]; irrigation from above, g of AS/ha: (A) 90, (B) 1200, (C) 140, (A)+(B)+(C) 90 + 1200 + 90
  activity MATCH: 30%
[6]; irrigation from below, g of AS/ha: (A) 90, (B) 1200, (C) 140, (A)+(B)+(C) 90 + 1200 + 140
  activity MATCH: 18%
LOLPE (Lolium perenne) [7]; irrigation from above
  activity LOLPE: 75%
LOLPE (Lolium perenne) [7]; irrigation from below
  activity LOLPE: 10%
[8]; soil pH 7.4
  activity HORVS pH 7.4 (crop plant): 0%
[8]; soil pH 8.4
  activity HORVS pH 8.4 (crop plant): 15%
[9]
  activity HORVS (crop plant): 30%
STEME (Stellaria media); IU soil
  activity STEME IU soil: 85%
STEME (Stellaria media); IU/EC73 soil
  activity STEME IU/EC73 soil: 55%
